According to patent US8192962B2, “Processes for detecting toxic substances” (Daikin Industries, Ltd., priority 2001, dated 2012):

Tested on: Transport facilitation protein genes
Assay: DNA chip mRNA expression in yeast, transport facilitation protein genes (Table 5)
Type: cell-based, Saccharomyces cerevisiae S288C
Summary of the method: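 Untreated cultures served as reference for log-phase S288C yeast given a growth-inhibiting, non-lethal toxicant dose for 2 h at 25° C. in YPD. Gene expression was measured on a whole-genome DNA chip from Cy3/Cy5-labeled cDNA.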

## S=C([S-])NCCNC(=S)[S-].[Zn+2] [(11), zinc N,N′-ethylenebis(dithiocarbamate)]
Yeast gene YHL035C
  The level of expressed mRNA in the presence of chemical substance/The level of expressed mRNA in the absence of chemical substance: 0.9
Yeast gene YHL036W
  The level of expressed mRNA in the presence of chemical substance/The level of expressed mRNA in the absence of chemical substance: 2.3
Yeast gene YHL040C
  The level of expressed mRNA in the presence of chemical substance/The level of expressed mRNA in the absence of chemical substance: 1.7
Yeast gene YHL047C
  The level of expressed mRNA in the presence of chemical substance/The level of expressed mRNA in the absence of chemical substance: 1.0
Yeast gene YHR026W
  The level of expressed mRNA in the presence of chemical substance/The level of expressed mRNA in the absence of chemical substance: 1.4
Yeast gene YHR048W
  The level of expressed mRNA in the presence of chemical substance/The level of expressed mRNA in the absence of chemical substance: 2.0
Yeast gene YHR092C
  The level of expressed mRNA in the presence of chemical substance/The level of expressed mRNA in the absence of chemical substance: 1.5
Yeast gene YHR094C
  The level of expressed mRNA in the presence of chemical substance/The level of expressed mRNA in the absence of chemical substance: 0.6
Yeast gene YHR175W
  The level of expressed mRNA in the presence of chemical substance/The level of expressed mRNA in the absence of chemical substance: 1.1
Yeast gene YIL006W
  The level of expressed mRNA in the presence of chemical substance/The level of expressed mRNA in the absence of chemical substance: 1.0
Yeast gene YIL022W
  The level of expressed mRNA in the presence of chemical substance/The level of expressed mRNA in the absence of chemical substance: 1.0
Yeast gene YIL056W
  The level of expressed mRNA in the presence of chemical substance/The level of expressed mRNA in the absence of chemical substance: 0.7
Yeast gene YIL088C
  The level of expressed mRNA in the presence of chemical substance/The level of expressed mRNA in the absence of chemical substance: 1.8
Yeast gene YJL034W
  The level of expressed mRNA in the presence of chemical substance/The level of expressed mRNA in the absence of chemical substance: 1.3
Yeast gene YJL212C
  The level of expressed mRNA in the presence of chemical substance/The level of expressed mRNA in the absence of chemical substance: 0.9
Yeast gene YJL219W
  The level of expressed mRNA in the presence of chemical substance/The level of expressed mRNA in the absence of chemical substance: 2.3
Yeast gene YJR077C
  The level of expressed mRNA in the presence of chemical substance/The level of expressed mRNA in the absence of chemical substance: 1.6
Yeast gene YJR106W
  The level of expressed mRNA in the presence of chemical substance/The level of expressed mRNA in the absence of chemical substance: 1.6
Yeast gene YJR121W
  The level of expressed mRNA in the presence of chemical substance/The level of expressed mRNA in the absence of chemical substance: 0.9
Yeast gene YKL016C
  The level of expressed mRNA in the presence of chemical substance/The level of expressed mRNA in the absence of chemical substance: 1.3
Yeast gene YKL146W
  The level of expressed mRNA in the presence of chemical substance/The level of expressed mRNA in the absence of chemical substance: 0.9
Yeast gene YKR039W
  The level of expressed mRNA in the presence of chemical substance/The level of expressed mRNA in the absence of chemical substance: 1.9
Yeast gene YKR067W
  The level of expressed mRNA in the presence of chemical substance/The level of expressed mRNA in the absence of chemical substance: 1.3
Yeast gene YLL028W
  The level of expressed mRNA in the presence of chemical substance/The level of expressed mRNA in the absence of chemical substance: 0.7
Yeast gene YLL055W
  The level of expressed mRNA in the presence of chemical substance/The level of expressed mRNA in the absence of chemical substance: 3.6
Yeast gene YLR081W
  The level of expressed mRNA in the presence of chemical substance/The level of expressed mRNA in the absence of chemical substance: 2.6
Yeast gene YLR295C
  The level of expressed mRNA in the presence of chemical substance/The level of expressed mRNA in the absence of chemical substance: 1.3
Yeast gene YLR348C
  The level of expressed mRNA in the presence of chemical substance/The level of expressed mRNA in the absence of chemical substance: 1.3
Yeast gene YLR378C
  The level of expressed mRNA in the presence of chemical substance/The level of expressed mRNA in the absence of chemical substance: 1.0
Yeast gene YMR011W
  The level of expressed mRNA in the presence of chemical substance/The level of expressed mRNA in the absence of chemical substance: 1.5
Yeast gene YMR162C
  The level of expressed mRNA in the presence of chemical substance/The level of expressed mRNA in the absence of chemical substance: 1.7
Yeast gene YMR203W
  The level of expressed mRNA in the presence of chemical substance/The level of expressed mRNA in the absence of chemical substance: 2.3
Yeast gene YNL055C
  The level of expressed mRNA in the presence of chemical substance/The level of expressed mRNA in the absence of chemical substance: 1.9
Yeast gene YNL259C
  The level of expressed mRNA in the presence of chemical substance/The level of expressed mRNA in the absence of chemical substance: 1.6
Yeast gene YNR072W
  The level of expressed mRNA in the presence of chemical substance/The level of expressed mRNA in the absence of chemical substance: 1.4
Yeast gene YOL119C
  The level of expressed mRNA in the presence of chemical substance/The level of expressed mRNA in the absence of chemical substance: 3.4
Yeast gene YOL156W
  The level of expressed mRNA in the presence of chemical substance/The level of expressed mRNA in the absence of chemical substance: 1.1
Yeast gene YOL158C
  The level of expressed mRNA in the presence of chemical substance/The level of expressed mRNA in the absence of chemical substance: 0.7
Yeast gene YOL163W
  The level of expressed mRNA in the presence of chemical substance/The level of expressed mRNA in the absence of chemical substance: 1.6
Yeast gene YOR035C
  The level of expressed mRNA in the presence of chemical substance/The level of expressed mRNA in the absence of chemical substance: 1.0
Yeast gene YOR130C
  The level of expressed mRNA in the presence of chemical substance/The level of expressed mRNA in the absence of chemical substance: 0.6
Yeast gene YOR153W
  The level of expressed mRNA in the presence of chemical substance/The level of expressed mRNA in the absence of chemical substance: 1.0
Yeast gene YOR270C
  The level of expressed mRNA in the presence of chemical substance/The level of expressed mRNA in the absence of chemical substance: 1.5
Yeast gene YOR273C
  The level of expressed mRNA in the presence of chemical substance/The level of expressed mRNA in the absence of chemical substance: 1.5
Yeast gene YOR316C
  The level of expressed mRNA in the presence of chemical substance/The level of expressed mRNA in the absence of chemical substance: 2.4
Yeast gene YOR328W
  The level of expressed mRNA in the presence of chemical substance/The level of expressed mRNA in the absence of chemical substance: 1.1
Yeast gene YOR332W
  The level of expressed mRNA in the presence of chemical substance/The level of expressed mRNA in the absence of chemical substance: 1.5
Yeast gene YOR348C
  The level of expressed mRNA in the presence of chemical substance/The level of expressed mRNA in the absence of chemical substance: 1.1
Yeast gene YPL036W
  The level of expressed mRNA in the presence of chemical substance/The level of expressed mRNA in the absence of chemical substance: 0.8
Yeast gene YPL134C
  The level of expressed mRNA in the presence of chemical substance/The level of expressed mRNA in the absence of chemical substance: 1.7
Yeast gene YPL265W
  The level of expressed mRNA in the presence of chemical substance/The level of expressed mRNA in the absence of chemical substance: 1.8
Yeast gene YPL271W
  The level of expressed mRNA in the presence of chemical substance/The level of expressed mRNA in the absence of chemical substance: 1.7
Yeast gene YPR124W
  The level of expressed mRNA in the presence of chemical substance/The level of expressed mRNA in the absence of chemical substance: 2.0
Yeast gene YPR192W
  The level of expressed mRNA in the presence of chemical substance/The level of expressed mRNA in the absence of chemical substance: 0.7
Yeast gene YPR194C
  The level of expressed mRNA in the presence of chemical substance/The level of expressed mRNA in the absence of chemical substance: 0.7
